Structures are written as SMILES. Calls of active or inactive are those of the source. No cut-off for these calls is given here.

One experiment deals with HeLa. Nature of the experiment: cells. The following applies: Homo sapiens, 72 h.
The test system of a further experiment is L1210. Nature of the experiment: cells. To be noted: Mus musculus, L1210, 72 h.
The next experiment deals with CCRF-CEM. The experiment can be described thus: cells. To be noted: Homo sapiens, 72 h.
A further experiment concerns HMEC-1. Nature of the experiment: Cytotoxicity against human HMEC-1 cells assessed as growth inhibition after 72 hrs by MTT assay. In kind it is cell-based. The following applies: HMEC-1, 72 h.
A further experiment deals with DNA. The experiment can be described thus: Binding affinity to double strand DNA (unknown origin) assessed as stabilization of DNA by measuring change in melting temperature at 1 uM by FRET analysis. In kind it is nucleic-acid assay. The following applies: Homo sapiens.
For experiment [1], the species on record is Homo sapiens. Nature of the experiment: Binding affinity to DAP DNA (unknown origin) assessed as stabilization of DNA by measuring change in melting temperature at 1 uM by FRET analysis.
A further experiment has as its system Quadruplex DNA. The experiment can be described thus: Binding affinity to human G-quadruplex TeloG DNA assessed as stabilization of DNA by measuring change in melting temperature at 1 uM by FRET analysis. The format is nucleic-acid assay.
Experiment [2] is filed under the species Homo sapiens. Nature of the experiment: Binding affinity to cMYC DNA (unknown origin) assessed as stabilization of DNA by measuring change in melting temperature at 1 uM by FRET analysis.
The species entered for experiment [3] is Homo sapiens. Nature of the experiment: Binding affinity to HIF1A DNA (unknown origin) assessed as stabilization of DNA by measuring change in melting temperature at 1 uM by FRET analysis.
Experiment [4] can be described thus: Binding affinity to NASG DNA (unknown origin) assessed as stabilization of DNA by measuring change in melting temperature at 1 uM by FRET analysis.
The species named for experiment [5] is Homo sapiens. The experiment can be described thus: Binding affinity to ILPR DNA (unknown origin) assessed as stabilization of DNA by measuring change in melting temperature at 1 uM by FRET analysis.
The species entered for experiment [6] is Homo sapiens. The experiment can be described thus: Binding affinity to human TeloC DNA assessed as stabilization of DNA by measuring change in melting temperature at 1 uM by FRET analysis.

Description for CCRF-CEM: Antiproliferative activity against human CEM cells assessed as growth inhibition after 72 hrs by MTT assay
Description for HeLa: Antiproliferative activity against human HeLa cells assessed as growth inhibition after 72 hrs by MTT assay
Description for L1210: Antiproliferative activity against mouse L1210 cells assessed as growth inhibition after 72 hrs by MTT assay

As a reminder, the IC50 is the concentration needed to halve the response being measured. For the compound `Cc1cc(NCCN)c2c3c4c(cc(O)c13)C(C)(C)C(=O)c1c(O)cc(O)c(c1-4)C2=O`, the concentration for half-maximal inhibition (IC50) in the experiment on HeLa turned out to be 1600 nM; with L1210, 200 nM; with CCRF-CEM, 2100 nM; in the experiment with HMEC-1 it was 1200 nM.
As usually defined, the ΔTm is the shift of the melting midpoint relative to a reference. In the case of `COc1cc2c3c4c(c(NCCN)cc(C)c14)C(=O)c1c(O)cc(O)c(c1-3)C(=O)C2(C)C`, the ΔTm with DNA came to 6 °C; in the experiment on Quadruplex DNA it was 5 °C; in the experiment listed under Homo sapiens [2], 25 °C; in the experiment listed under Homo sapiens [3] it was 10 °C; in experiment [4], 4 °C; in the experiment listed under Homo sapiens [5] it was 17 °C. The result in the experiment listed under Homo sapiens [1] and in the experiment listed under Homo sapiens [6] was inactive. For the same compound, the IC50 with HeLa was determined as 800 nM; with L1210, 800 nM; in the experiment with CCRF-CEM, 800 nM; in the experiment with HMEC-1, 700 nM.
As for `COc1cccc2c1C(=O)c1c(O)c3c(c(O)c1C2=O)C[C@@](O)(C(=O)CO)C[C@@H]3O[C@H]1C[C@H](N)[C@H](O)[C@H](C)O1` [DOXORUBICIN], the IC50 in the experiment with HMEC-1 came to 100 nM.

Values taken from ChEMBL document CHEMBL4825679, “Water-Soluble Heliomycin Derivatives to Target i-Motif DNA” (J Nat Prod, 2021).
